The supplement of paper PMC7108870

What was measured:
HEK293sieSTAT3(Y640F) [1] = assay: drug sensitivity score (DSS), cytotoxicity CellTox Green (DSS (dimensionless)); higher = more cytotoxic; extreme values may be limits of the assay; conditions: 72 h; STAT3 variant: Y640F (constitutively active)
How it was run: (§1)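 In 384-well plates with acoustically pre-plated compounds (5 concentrations, 10-fold dilutions), 20 μl of HEK293 cells at 100,000 cells/ml were added; the cells overexpressed wild-type or mutant STAT3 and carried a STAT3-dependent luciferase reporter. Incubation lasted 72 hours at 37°C and 5% CO2 before sequential CellTox Green (485/520 nm) and CellTiter-Glo reads on a PHERAstar FS. After normalisation to negative and positive control wells, Breeze was used to derive a drug sensitivity score from the dose-response curve area.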

HEK293sieSTAT3(wt) [2] = assay: as above; conditions: 72 h; STAT3 variant: wild type
How it was run: as §1

HEK293sieSTAT3(Y640F) [3] = assay: drug sensitivity score (DSS), viability CellTiter-Glo (DSS (dimensionless)); higher = more growth inhibition; extreme values may be limits of the assay; conditions: 72 h; STAT3 variant: Y640F (constitutively active)
How it was run: as §1

HEK293sieSTAT3(wt) [4] = assay: as above; conditions: 72 h; STAT3 variant: wild type
How it was run: as §1

| Structure (SMILES) | drug sensitivity score (HEK293sieSTAT3(Y640F) [1]) | drug sensitivity score (HEK293sieSTAT3(wt) [2]) | drug sensitivity score (HEK293sieSTAT3(Y640F) [3]) | drug sensitivity score (HEK293sieSTAT3(wt) [4]) |
| --- | --- | --- | --- | --- |
| Cc1c(N)nc([C@H](CC(N)=O)NC[C@H](N)C(N)=O)nc1C(=O)N[C@H](C(=O)N[C@H](C)[C@@H](O)[C@H](C)C(=O)N[C@H](C(=O)NCCc1nc(-c2nc(C(=O)NCCC[S+](C)C)cs2)cs1)[C@@H](C)O)[C@@H](OC1OC(CO)C(O)C(O)C1OC1OC(CO)C(O)C(OC(N)=O)C1O)c1cnc[nH]1 (some centres undefined) [Bleomycin] (top concentration tested 10000 nM) | 4.25 | 5.92 | 20.1 | 18.8 |
| CC(C)C[C@H](NC(=O)[C@H](Cc1ccccc1)NC(=O)c1cnccn1)B(O)O [Bortezomib] (top concentration tested 1000 nM) | 30.6 | 31.7 | 29.8 | 32.5 |
| COc1cc(Nc2c(C#N)cnc3cc(OCCCN4CCN(C)CC4)c(OC)cc23)c(Cl)cc1Cl [Bosutinib] (top concentration tested 10000 nM) | 7.59 | 7.02 | 7.76 | 8.54 |
| COc1cc(N2CCC(N3CCN(C)CC3)CC2)ccc1Nc1ncc(Cl)c(Nc2ccccc2P(C)(C)=O)n1 [Brigatinib] (top concentration tested 2500 nM) | 0.69 | 1.71 | 7.58 | 8.02 |
| Cc1cc2c(F)c(Oc3ncnn4cc(OC[C@@H](C)O)c(C)c34)ccc2[nH]1 [Brivanib] (top concentration tested 1000 nM) | 0 | 0 | 0.26 | 0 |
| CCC/C=C/C=C/C(=O)O[C@H]1/C(=C/C(=O)OC)C[C@H]2C[C@H]([C@@H](C)O)OC(=O)C[C@H](O)C[C@@H]3C[C@H](OC(C)=O)C(C)(C)[C@](O)(C[C@@H]4C/C(=C/C(=O)OC)C[C@H](/C=C/C(C)(C)[C@]1(O)O2)O4)O3 [Bryostatin 1] (top concentration tested 100 nM) | 0.65 | 0.86 | 0 | 0.13 |
| Nc1cc(C(F)(F)F)c(-c2cc(N3CCOCC3)nc(N3CCOCC3)n2)cn1 [Buparlisib] (top concentration tested 10000 nM) | 0.73 | 4 | 10.5 | 12.3 |
| CS(=O)(=O)OCCCCOS(C)(=O)=O [Busulfan] (top concentration tested 100000 nM) | 0 | 1.26 | 0.42 | 4.87 |
| O=C(O)CCCCC(CCSCc1ccccc1)SCc1ccccc1 (centres undefined) [CPI-613] (top concentration tested 10000 nM) | 0 | 0.8 | 0.32 | 2.62 |
| C#Cc1cccc(Nc2ncnc3cc(OC)c(OCCCCCCC(=O)NO)cc23)c1 [CUDC-101] (top concentration tested 10000 nM) | 7.69 | 3.02 | 16.1 | 9.59 |
| CN(C)c1cc2c(cc1Sc1nc3c(N)nccc3n1CCNCC(C)(C)C)OCO2 [CUDC-305] (top concentration tested 10000 nM) | 7.26 | 17.6 | 20 | 24.6 |
| COc1ccc(-c2nc(N3CCOCC3)c3sc(CN(C)c4ncc(C(=O)NO)cn4)cc3n2)cn1 [CUDC-907] (top concentration tested 10000 nM) | 19.1 | 30.6 | 36.8 | 37.1 |
| Cc1nc(N)sc1-c1ccnc(Nc2ccc(N3CCOCC3)cc2)n1 [CYC-116] (top concentration tested 10000 nM) | 0 | 0.48 | 8.51 | 9.72 |
| CO[C@H]1C(=O)[C@]2(C)[C@@H](OC)C[C@H]3OC[C@@]3(OC(C)=O)[C@H]2[C@H](OC(=O)c2ccccc2)[C@]2(O)C[C@H](OC(=O)[C@H](O)[C@@H](NC(=O)OC(C)(C)C)c3ccccc3)C(C)=C1C2(C)C [Cabazitaxel] (top concentration tested 1000 nM) | 4.14 | 16.3 | 26.2 | 28.6 |
| COc1cc2nccc(Oc3ccc(NC(=O)C4(C(=O)Nc5ccc(F)cc5)CC4)cc3)c2cc1OC [Cabozantinib] (top concentration tested 1000 nM) | 0 | 0 | 0.13 | 1.9 |
| CC[C@@]1(O)C(=O)OCc2c1cc1n(c2=O)Cc2cc3ccccc3nc2-1 [Camptothecin] (top concentration tested 5000 nM) | 9.78 | 15.8 | 28.5 | 29.1 |
